{"source": "ChEMBL document CHEMBL1949652", "about": "“First enantioselective syntheses of the dopamine D1 and D2 receptor modulators, (+)- and (-)-govadine” (Bioorg Med Chem Lett, 2012)", "key": {"[1]": {"biological_target": "D(1A) dopamine receptor (Homo sapiens, UniProt P21728)", "sequence (P21728 whole entry)": "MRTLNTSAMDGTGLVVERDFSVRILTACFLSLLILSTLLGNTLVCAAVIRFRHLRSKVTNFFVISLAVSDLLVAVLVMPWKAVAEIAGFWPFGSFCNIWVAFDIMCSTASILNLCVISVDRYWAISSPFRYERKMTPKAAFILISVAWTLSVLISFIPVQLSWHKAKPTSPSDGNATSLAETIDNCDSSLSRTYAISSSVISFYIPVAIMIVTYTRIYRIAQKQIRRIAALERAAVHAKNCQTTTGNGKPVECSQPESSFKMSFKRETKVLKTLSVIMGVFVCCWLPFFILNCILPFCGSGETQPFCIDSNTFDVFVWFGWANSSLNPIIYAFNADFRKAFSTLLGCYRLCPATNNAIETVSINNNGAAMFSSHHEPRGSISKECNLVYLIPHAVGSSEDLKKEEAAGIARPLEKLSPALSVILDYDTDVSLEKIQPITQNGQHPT", "assay": "Antagonist activity at dopamine D1 receptor", "format": "functional"}, "[2]": {"biological_target": "D(2) dopamine receptor (Homo sapiens, UniProt P14416)", "sequence (P14416 whole entry)": "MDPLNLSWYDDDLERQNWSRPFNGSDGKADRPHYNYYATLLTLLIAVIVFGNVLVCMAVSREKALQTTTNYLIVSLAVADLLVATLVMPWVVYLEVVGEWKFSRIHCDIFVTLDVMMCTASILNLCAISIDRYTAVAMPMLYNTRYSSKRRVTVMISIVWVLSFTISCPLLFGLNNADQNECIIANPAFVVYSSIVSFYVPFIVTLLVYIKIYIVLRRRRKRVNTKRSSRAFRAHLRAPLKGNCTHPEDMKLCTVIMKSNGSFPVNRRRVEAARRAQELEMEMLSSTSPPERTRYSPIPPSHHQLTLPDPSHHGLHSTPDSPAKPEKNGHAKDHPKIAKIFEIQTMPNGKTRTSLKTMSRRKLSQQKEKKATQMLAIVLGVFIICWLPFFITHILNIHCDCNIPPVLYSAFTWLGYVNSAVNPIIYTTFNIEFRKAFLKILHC", "assay": "Antagonist activity at dopamine D2 receptor", "format": "functional"}}, "data": [{"compound": "COc1cc2c(cc1O)CN1CCc3cc(OC)c(O)cc3[C@@H]1C2", "values": [{"measurement": "EC50", "setting": "[1]", "value": 0.0056, "unit": "µM"}, {"measurement": "EC50", "setting": "[2]", "value": 56, "unit": "µM"}]}, {"compound": "COc1cc2c(cc1O)CN1CCc3cc(OC)c(O)cc3[C@H]1C2", "values": [{"measurement": "EC50", "setting": "[1]", "value": "> 100", "unit": "µM"}, {"measurement": "EC50", "setting": "[2]", "value": 14, "unit": "µM"}]}]}
